Values quoted from earlier work as cited in US20160256406A1, “OLIGOMERIC/POLYMERIC SILICONE FLUIDS FOR USE IN TRANSDERMAL DRUG DELIVERY SYSTEMS” (priority 2015, published 2016).

Legend:
[1] = at RT
[2] = at RT; remark: listed apart in the source

Compound | Octanol/Water Partition Coefficient (Log Kow) [1] | Water Solubility [2]
C[Si](C)(C)O[Si](C)(C)O[Si](C)(C)O[Si](C)(C)C [L4, Decamethyltetrasiloxane] | 5.4 | –
C[Si]1(C)O[Si](C)(C)O[Si](C)(C)O[Si](C)(C)O[Si](C)(C)O[Si](C)(C)O1 [D6, Dodecamethylcyclohexasiloxane] | 6.3 | 0.005 µg/mL
C[Si](C)(C)O[Si](C)(C)O[Si](C)(C)O[Si](C)(C)O[Si](C)(C)C [L5, Dodecamethylpentasiloxane] | 6.0 | –
C[Si](C)(C)O[Si](C)(C)C [L2, Hexamethyldisiloxane] | 4.2 | –
C[Si]1(C)O[Si](C)(C)O[Si](C)(C)O[Si](C)(C)O1 [D4, Octamethylcyclotetrasiloxane] | 5.1 | –
C[Si]1(C)O[Si](C)(C)O[Si](C)(C)O[Si](C)(C)O[Si](C)(C)O1 [D5, Decamethylcyclopentasiloxane] | 5.2-5.7 | 0.017 to 0.050 µg/mL
C[Si]1(C)O[Si](C)(C)O[Si](C)(C)O1 [D3, Hexamethylcyclotrisiloxane] | 4.5 | –
C[Si](C)(C)O[Si](C)(C)O[Si](C)(C)C [L3, Octamethyltrisiloxane] | 4.8 | –
